Results as given in US9840508B2, “N-acyl-(3-substituted)-(8-methyl)-5,6-dihydro-[1,2,4]triazolo[4,3-a] pyrazines as selective NK-3 receptor antagonists, pharmaceutical composition, methods for use in NK-3 receptor-mediated disorders” (EUROSCREEN SA, priority 2013, dated 2017).
Where two headings read alike, the source gives them in different places.

Experiments:
human NK-3 receptor [1] = target: T1, human NK-3 receptor (Homo sapiens (Human), UniProt P29371); assay: Aequorin functional assay with human NK-3 receptor (antagonist testing); format: cell-based; settings: CHO cells expressing human NK-3 receptor; agonist NKA at EC80 (3 nM); read-out: Functional assay: Aequorin assay with human NK-3 receptor hNK-3 - AEQ (antagonist IC50)
T1 sequence (P29371 whole entry): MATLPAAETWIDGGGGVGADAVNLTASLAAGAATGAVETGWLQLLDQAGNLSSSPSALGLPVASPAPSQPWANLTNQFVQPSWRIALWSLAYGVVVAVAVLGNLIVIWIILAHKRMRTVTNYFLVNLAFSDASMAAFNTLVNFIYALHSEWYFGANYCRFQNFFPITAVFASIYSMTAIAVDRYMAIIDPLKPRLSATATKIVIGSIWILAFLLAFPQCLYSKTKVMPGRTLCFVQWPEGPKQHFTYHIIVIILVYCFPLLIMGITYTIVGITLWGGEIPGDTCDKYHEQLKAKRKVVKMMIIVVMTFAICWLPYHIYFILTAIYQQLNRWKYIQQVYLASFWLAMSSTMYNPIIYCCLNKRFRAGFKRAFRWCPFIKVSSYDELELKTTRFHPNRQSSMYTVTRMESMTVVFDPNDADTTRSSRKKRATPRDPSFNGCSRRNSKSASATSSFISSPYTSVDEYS
Method: Aequorin Assay with Human NK-3 Receptor
Changes in intracellular calcium levels are a recognized indicator of G protein-coupled receptor activity. The efficacy of compounds of the invention to inhibit NKA-mediated NK-3 receptor activation was assessed by an in vitro Aequorin functional assay. Chinese Hamster Ovary recombinant cells expressing the human NK-3 receptor and a construct that encodes the photoproteinapoaequorin were used for this assay. In the presence of the cofactor coelenterazine, apoaequorin emits a measurable luminescence that is proportional to the amount of intracellular (cytoplasmic) free calcium.
The antagonist activity of compounds of the invention is measured following pre-incubation (3 minutes) of the compound (at various concentrations) with the cells, followed by addition of the reference agonist (NKA) at a final concentration equivalent to the EC80 (3 nM) and recording of emitted light (FDSS 6000 Hamamatsu) over the subsequent 90-second period. The intensity of the emitted light is integrated using the reader software. Compound antagonist activity is measured based on the concentration-dependent inhibition of the luminescence response to the addition of Neurokinin A.
The IC50 values shown in Table 2 indicate that compounds of the invention are potent NK-3 antagonist compounds.

human NK-3 receptor [2] = target: T1, human NK-3 receptor; assay: 3H-SB222200 binding competition assay with human NK-3 receptor
Method: The affinity of compounds of the invention for the human NK-3 receptor was determined by measuring the ability of compounds of the invention to competitively and reversibly displace a well-characterized NK-3 radioligand in a concentration-dependent manner.
^3H-SB222200 Binding Competition Assay with Human NK-3 Receptor
The ability of compounds of the invention to inhibit the binding of the NK-3 receptor selective antagonist ^3H-SB222200 was assessed by an in vitro radioligand binding assay. Membranes were prepared from Chinese hamster ovary recombinant cells stably expressing the human NK-3 receptor. The membranes were incubated with 5 nM ^3H-SB222200 (ARC) in a HEPES 25 mM/NaCl 0.1M/CaCl2 1 mM/MgCl2 5 mM/BSA 0.5%/Saponin 10 μg/ml buffer at pH 7.4 and various concentrations of compounds of the invention. The amount of ^3H-SB222200 bound to the receptor was determined after filtration by the quantification of membrane associated radioactivity using the TopCount-NXT reader (Packard).

human NK-1 receptor = human NK-1 receptor (Homo sapiens (Human), UniProt P25103); assay: Selectivity binding assay, human NK-1 ([3H] substance P); settings: CHO cell membranes; 2 nM [3H] substance P; read-out: hNK-1 (Ki)
Sequence of human NK-1 receptor (P25103 whole entry): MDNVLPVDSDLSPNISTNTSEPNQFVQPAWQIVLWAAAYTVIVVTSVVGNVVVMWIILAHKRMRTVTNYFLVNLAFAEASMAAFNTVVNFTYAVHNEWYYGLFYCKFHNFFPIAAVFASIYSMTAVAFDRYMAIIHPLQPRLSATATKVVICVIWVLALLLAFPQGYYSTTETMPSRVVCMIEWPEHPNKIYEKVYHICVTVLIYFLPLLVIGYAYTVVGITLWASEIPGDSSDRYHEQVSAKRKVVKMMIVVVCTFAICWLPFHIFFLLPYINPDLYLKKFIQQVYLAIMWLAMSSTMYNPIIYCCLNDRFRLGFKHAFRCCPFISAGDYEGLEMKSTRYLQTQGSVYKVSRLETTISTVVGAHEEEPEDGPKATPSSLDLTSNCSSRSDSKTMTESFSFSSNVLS
Method: (§1) Selectivity of the compounds of the invention was determined over the other human NK receptors, namely NK-1 and NK-2 receptors.
The affinity of compounds of the invention for the NK-1 receptor was evaluated in CHO recombinant cells which express the human NK-1 receptor. Membrane suspensions were prepared from these cells. The following radioligand: [^3H] substance P (PerkinElmer Cat#NET111520) was used in this assay. Binding assays were performed in a 50 mM Tris/5 mM MnCl2/150 mM NaCl/0.1% BSA at pH 7.4. Binding assays consisted of 25 μl of membrane suspension (approximately 5 μg of protein/well in a 96 well plate), 50 μl of compound or reference ligand (Substance P) at increasing concentrations (diluted in assay buffer) and 2 nM [^3H] substance P. The plate was incubated 60 min at 25° C. in a water bath and then filtered over GF/C filters (Perkin Elmer, 6005174, presoaked in 0.5% PEI for 2 h at room temperature) with a Filtration unit (Perkin Elmer). The radioactivity retained on the filters was measured by using the TopCount-NXT reader (Packard). Competition curves were obtained for compounds of the invention and the concentrations of compounds which displaced 50% of bound radioligand (IC50) were determined and then apparent inhibition constant Ki values were calculated by the following equation: Ki=IC50/(1+[L]/KD) where [L] is the concentration of free radioligand and KD is its dissociation constant at the receptor, derived from saturation binding experiments (Cheng and Prusoff, 1973).

human NK-2 receptor = human NK-2 receptor (Homo sapiens (Human), UniProt P21452); assay: Selectivity binding assay, human NK-2 ([125I]-Neurokinin A); settings: CHO cell membranes; 0.1 nM [125I]-Neurokinin A; read-out: hNK-2 (Ki)
Sequence of human NK-2 receptor (P21452 whole entry): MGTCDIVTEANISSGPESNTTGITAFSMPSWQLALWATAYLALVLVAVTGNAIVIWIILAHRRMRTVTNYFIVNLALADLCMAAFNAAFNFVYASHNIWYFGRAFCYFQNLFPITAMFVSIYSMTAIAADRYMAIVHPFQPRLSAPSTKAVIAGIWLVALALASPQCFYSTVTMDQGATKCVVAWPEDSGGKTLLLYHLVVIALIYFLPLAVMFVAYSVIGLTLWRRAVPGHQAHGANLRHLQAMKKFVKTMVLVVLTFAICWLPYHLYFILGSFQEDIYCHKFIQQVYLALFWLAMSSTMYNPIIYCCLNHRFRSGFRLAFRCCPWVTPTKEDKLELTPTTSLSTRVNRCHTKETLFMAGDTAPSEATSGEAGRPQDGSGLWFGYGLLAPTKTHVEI
Method: as §1
The affinity of compounds of the invention for the NK-2 receptor was evaluated in CHO recombinant cells which express the human NK-2 receptor. Membrane suspensions were prepared from these cells. The following radioligand [^125I]-Neurokinin A (PerkinElmer Cat#NEX252) was used in this assay. Binding assays were performed in a 25 mM HEPES/1 mM CaCl2/5 mM MgCl2/0.5% BSA/10 μg/ml saponin, at pH 7.4. Binding assays consisted of 25 μl of membrane suspension (approximately 3.75 μg of protein/well in a 96 well plate), 50 μl of compound or reference ligand (Neurokinin A) at increasing concentrations (diluted in assay buffer) and 0.1 nM [^125I]-Neurokinin A. The plate was incubated 60 min at 25° C. in a water bath and then filtered over GF/C filters (Perkin Elmer, 6005174, presoaked in assay buffer without saponine for 2 h at room temperature) with a Filtration unit (Perkin Elmer). The radioactivity retained on the filters was measured by using the TopCount-NXT reader (Packard). Competition curves were obtained for compounds of the invention and the concentrations of compounds which displaced 50% of bound radioligand (IC50) were determined and then apparent inhibition constant Ki values were calculated by the following equation: Ki=IC50/(1+[L]/KD) where [L] is the concentration of free radioligand and KD is its dissociation constant at the receptor, derived from saturation binding experiments (Cheng and Prusoff, 1973).

plasma protein = assay: Determination of plasma protein binding (rapid equilibrium dialysis); format: in vitro ADME; settings: 4 hours at 37° C.
Source text: Determination of Plasma Protein Binding
The pharmacokinetic and pharmacodynamic properties of chemicals/drugs are largely a function of the reversible binding of chemicals to plasma or serum proteins. Generally, only the unbound or “free fraction” of a drug is available for diffusion or transport across cell membranes, and for interaction with a pharmacological/toxicological target. Consequently, the extent of the plasma protein binding (PPB) of a compound influences its action as well as its distribution and elimination.
The determination of plasma protein binding (PPB) of a compound is enabled by equilibrium dialysis, an accepted and standard method for reliable estimation of the non-bound drug fraction in plasma. RED (Rapid Equilibrium Dialysis) device insert is made of two side-by-side chambers separated by an O-ring-sealed vertical cylinder of dialysis membrane (MWCO˜8,000). Plasma containing drug (at 5 μM or blood concentrations otherwise corresponding to efficacious doses, if known) is added to one chamber while buffer is added to the second. After 4 hours incubation at 37° C. under shaking, an aliquot is removed from each chamber and analyzed by a LC-MS/MS procedure enables the determination of both free and bound drug.
The percentages provided in Table 4 represent for the compounds of the invention the bound drug fraction to the plasma protein. The “free fraction” may be calculated as 100%−% rPPB (i.e. the complementary percentage of that disclosed in Table 4, corresponding to the drug concentration that is unbound and therefore available to engage biological target and elicit pharmacological activity).

[3] = CHO cell membranes, 5 nM 3H-SB222200, Table 2, read-out: Competitive binding assay with human NK-3 receptor hNK-3 (Ki)
[4] = Table 3 (selectivity table), read-out: hNK-3 (Ki)

Compound | IC50 (human NK-3 receptor [1]) [nM] | Ki (human NK-3 receptor [2]; [3]) [nM] | Ki (human NK-3 receptor [2]; [4]) [nM] | Ki (human NK-1 receptor) [nM] | Ki (human NK-2 receptor) [nM] | Exposure (% rPPB), bound drug fraction to the plasma protein (plasma protein) [%]
Cc1ccc(-c2nnc3n2CCN(C(=O)c2cc(F)c(F)c(F)c2)[C@@H]3C)o1 [Compound 7, (R)-(8-methyl-3-(5-methylfuran-2-yl)-5,6-dihydro-[1,2,4]triazolo[4,3-a]pyrazin-7(8H)-yl)(3,4,5-trifluorophenyl)methanone] | 57 | 33 | 33 | 27000 | 21000 | 26
C[C@@H]1c2nnc(-c3csc(C(F)(F)F)n3)n2CCN1C(=O)c1ccc(F)c(F)c1 [Compound 13, (R)-(3,4-difluorophenyl)(8-methyl-3-(2-(trifluoromethyl)thiazol-4-yl)-5,6-dihydro-[1,2,4]triazolo[4,3-a]pyrazin-7(8H)-yl)methanone] | 26 | 20 | 20 | 21000 | 7000 | 51
C[C@@H]1c2nnc(-c3csc(C(F)(F)F)n3)n2CCN1C(=O)c1ccc(Cl)cc1 [Compound 18, (R)-(4-chlorophenyl)(8-methyl-3-(2-(trifluoromethyl)thiazol-4-yl)-5,6-dihydro-[1,2,4]triazol[4,3-a]pyrazin-7(8H)-yl)methanone] | 31 | 21 | 21 | 15000 | 5900 | 78

More lines, in order of falling IC50 (human NK-3 receptor [1]), values ahead:

IC50 (human NK-3 receptor [1]) [nM] | Ki (human NK-3 receptor [2]; [3]) [nM] | Ki (human NK-3 receptor [2]; [4]) [nM] | Ki (human NK-1 receptor) [nM] | Ki (human NK-2 receptor) [nM] | Exposure (% rPPB), bound drug fraction to the plasma protein (plasma protein) [%] | Compound
160 | 100 | 100 | > 30000 | > 30000 | 17 | Cc1nc(-c2nnc3n2CCN(C(=O)c2ccc(F)cc2)[C@@H]3C)cs1 [Compound 2, (R)-(4-fluorophenyl)(8-methyl-3-(2-methylthiazol-4-yl)-5,6-dihydro-[1,2,4]triazolo[4,3-a]pyrazin-7(8H)-yl)methanone]
23 | 14 | 14 | 9400 | 1500 | 82 | C[C@@H]1c2nnc(-c3csc(C(F)(F)F)n3)n2CCN1C(=O)c1ccc(F)c(Cl)c1 [Compound 16, (R)-(3-chloro-4-fluorophenyl)(8-methyl-3-(2-(trifluoromethyl)thiazol-4-yl)-5,6-dihydro-[1,2,4]triazolo[4,3-a]pyrazin-7(8H)-yl)methanone]
